“Also recorded” adds a separate entry of the source. Read-outs that look alike come from different tables or passages of the source.
Tests used:
B16F11 = test: Cell viability assay (CellTiter-Blue, 72 hr); assay type: cell-based, Mouse
Experimental: (§1) Cancer cell lines were seeded in 96 well tissue culture plate at a low density (10,000 cells per well) and treated with varying concentrations of Eggmanone. After 72 hr incubation, CellTiter-Blue Cell Viability Assay (Promega, Madison, Wis.) was then performed according to manufacturer's protocol. Absorbance was then measured in a Modulus Microplate reader (Promega, Madison, Wis.) at 590 nm and compared to cells treated with DMSO.
as §1, with “density” for “density (10,000 cells per well)”, “compounds identified in Table 7.” for “Eggmanone.”

DaoY = test: Cell viability assay (CellTiter-Blue, 72 hr); assay type: cell-based, Human
Experimental: as §1
as §1, with “density” for “density (10,000 cells per well)”, “compounds identified in Table 7.” for “Eggmanone.”

HCT116 = test: Cell viability assay (CellTiter-Blue, 72 hr); assay type: cell-based, Human
Experimental: as §1
as §1, with “density” for “density (10,000 cells per well)”, “compounds identified in Table 7.” for “Eggmanone.”

MDA-MB- 231 = test: Cell viability assay (CellTiter-Blue, 72 hr); assay type: cell-based, Human
Experimental: as §1
as §1, with “density” for “density (10,000 cells per well)”, “compounds identified in Table 7.” for “Eggmanone.”

RKO = test: Cell viability assay (CellTiter-Blue, 72 hr); assay type: cell-based, Human; conditions: for EC50: RKO, human cancer cells, read-out: CELL KILLING EC50 (μM) Colon RKO
Experimental: as §1
as §1, with “density” for “density (10,000 cells per well)”, “compounds identified in Table 7.” for “Eggmanone.”

RWGT2 = test: Cell viability assay (CellTiter-Blue, 72 hr); assay type: cell-based, Human
Experimental: as §1
as §1, with “density” for “density (10,000 cells per well)”, “compounds identified in Table 7.” for “Eggmanone.”

PC3 = test: Cell viability assay (CellTiter-Blue, 72 hr); assay type: cell-based; conditions: for EC50: PC-3, human cancer cells, read-out: CELL KILLING EC50 (μM) Prostate PCx3
Experimental: as §1

Gli1 mRNA = test: Hh % Inh.: SAG-induced Gli1 expression in C3H10T½ cells (qPCR); assay type: cell-based; conditions: Mus musculus, C3H 10T1/2, SAG-induced (100 nM), 24 hours; for inhibition at 1 µM: 1 pM [sic], read-out: C3H10T1/2 qPCR, Gh1 mRNA % Inh., 1 pM; for inhibition at 10 µM: 10 pM [sic], read-out: C3H10T1/2 qPCR, Gh1 mRNA % Inh., 10 pM; for EC50: read-out: C3H10T1/2 qPCR, Gh1 mRNA EC50
Experimental: Compounds are dosed from 10 mM DMSO stock solutions, and mRNA is isolated after 24 hours of compound treatment. mRNA is reverse transcribed to produce cDNA which is quantified by quantitative polymerase chain reaction (qPCR) in triplicate and levels are normalized to GAPDH levels. Data is presented as percent inhibition compared to positive control (SAG).

[1] = test system: Hedgehog signaling (TM3-Gli-Luc); test: TM3-Gli-Luc luciferase reporter assay stimulated with 20 nM SAG; assay type: cell-based
In short: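 TM3-Gli-Luc cells on 0.1% gelatin in DMEM/F12 with 2.5% FBS, treated 48 h with compound plus 20 nM SAG. Steady-Glo luminescence normalized to CellTiter-Glo viability, DMSO-only (no SAG) background subtracted, percent of SAG control. EC50 averaged from ≥2 independent days ±SEM.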

[2] = Mus musculus, B16-F10, Table 10, read-out: CELL KILLING EC50 (μM) Melanoma B16F10
[3] = Daoy, human cancer cells, read-out: CELL KILLING EC50 (μM) Medulloblastoma DaoY
[4] = HCT-116, human cancer cells, read-out: CELL KILLING EC50 (μM) Colon HTC116
[5] = MDA-MB-231, human cancer cells, read-out: CELL KILLING EC50 (μM) Breast MDA-231
[6] = human cancer cells, read-out: CELL KILLING EC50 (μM) Lung Squam, NSCLC RWGT2
[7] = Table 9A, read-out: TM3 G8 Luciferase EC 50
[8] = 20 nM SAG, mean ± standard error of the mean, read-out: TM3-Gli-Luc EC50
[9] = TM3-Gli-Luc reporter line stimulated with 20 nM SAG, mean ± SEM, Table 14, read-out: TM3-Gli-Luc EC50

For `C=C(C)Cn1c(SCC(=O)c2cccs2)nc2sc3c(c2c1=O)CCCC3` [EGM, Eggmanone], the EC50 (B16F11; [2]) was 2.22 µM, the EC50 (DaoY; [3]) was 31.5 µM and the EC50 (HCT116; [4]) was 11.4 µM. For the same compound, the EC50 (MDA-MB- 231; [5]) was 2.05 µM, the EC50 (RKO) was 54.3 µM and the EC50 (RWGT2; [6]) was 6.87 µM. It also gave an EC50 (PC3) of 77.2 µM, an inhibition at 1 µM (Gli1 mRNA) of 53.3% and an inhibition at 10 µM (Gli1 mRNA) of 92.7%. For the same compound, the EC50 (Gli1 mRNA) was 1.41 µM and the EC50 [1, 7] was 1.35 µM.

For `C=C(C)Cn1c(SCC(=O)c2ccccc2)nc2sc3c(c2c1=O)CCCC3` [Formula 9g], the “Hh inhibitory activity / potency in words” value ([1]; 20 nM SAG) was “modest potency”, the EC50 [1, 8] was 5.7 ± 2.1 µM and the EC50 [1, 9] was 5.7 ± 2.1 µM.

With `C=CCn1c(SCC(=O)c2cccs2)nc2sc3c(c2c1=O)CCCC3` [JEH-3-039-3] the EC50 (B16F11; [2]) was 3.69 µM, the EC50 (DaoY; [3]) was 34 µM and the EC50 (HCT116; [4]) was 54.5 µM. It also gave an EC50 (MDA-MB- 231; [5]) of 1.74 µM, an EC50 (RKO) of 306 µM and an EC50 (RWGT2; [6]) of 5.07 µM. It also gave an EC50 (PC3) of 50.1 µM, an inhibition at 1 µM (Gli1 mRNA) of 64.9% and an inhibition at 10 µM (Gli1 mRNA) of 66.5%. The EC50 [1, 7] was 3.02 µM.

In the case of `C=C(C)Cn1c(SCC(=O)c2nccs2)nc2sc3c(c2c1=O)CCCC3` [JEH-3-069-1], the EC50 (B16F11; [2]) is reported as 16.1 µM, the EC50 (DaoY; [3]) is reported as 26.9 µM and the EC50 (HCT116; [4]) is reported as 22.9 µM. It also gave an EC50 (MDA-MB- 231; [5]) of 14 µM, an EC50 (RKO) of 38.3 µM and an EC50 (RWGT2; [6]) of 27.6 µM. For the same compound, the EC50 (PC3) was 69.7 µM, the inhibition at 10 µM (Gli1 mRNA) was 42.8% and the EC50 [1, 7] was 32.5 µM.

`CCCn1c(SCC(=O)c2cccs2)nc2sc3c(c2c1=O)CCCC3` [Formula 9e] was tested, and the EC50 [1, 8] was 1.3 ± 0.18 µM and the EC50 [1, 9] was 1.3 ± 0.18 µM.

Compound `O=C(CSc1nc2sc3c(c2c(=O)n1C1CC1)CCCC3)c1cccs1` [JEH-3-039-2] has an inhibition at 1 µM (Gli1 mRNA) of 49.3%, an inhibition at 10 µM (Gli1 mRNA) of 89.1% and an EC50 (Gli1 mRNA) of 0.593 µM. For the same compound, the EC50 [1, 7] was 0.476 µM.

`C=C(C)Cn1c(SCC(=O)c2cccs2)nc2sc3c(c2c1=O)CCCC3` [Eggmanone, 3-(2-methylallyl)-2-((2-oxo-2-(thiophen-2-yl)ethyl)thio)-5,6,7,8-tetrahydrobenzo[4,5]thieno[2,3-d]pyrimidine-4(3H)-one] was tested, and the EC50 (B16F11; 72 h, read-out: EC50 (50% reduction of viable cell count at 72 hours), B16F11, Mouse Melanoma) was 2.05 µM, the “Viability of Daoy medulloblastoma cells” value (DaoY) was “potently and preferentially reduced the viability; also recorded: significantly inhibited” and the “Viability of Daoy medulloblastoma cells” value (DaoY; listed as eggmanone) was “potently and preferentially reduced the viability”. For the same compound, the “Effect on HCT116 colon cancer cell line” value (HCT116) was “significantly inhibited”, the EC50 (MDA-MB- 231; 72 h, read-out: EC50 (50% reduction of viable cell count at 72 hours), MDA-MB- 231, Human Breast Adenocarcinoma) was 2.05 µM and the “Effect on RKO colon cancer cell line” value (RKO) was “significantly inhibited”. The EC50 (RWGT2; 72 h, read-out: EC50 (50% reduction of viable cell count at 72 hours), RWGT2, Human Lung Carcinoma) was 6.87 µM and the “Effect on PC3 prostate cancer cell line” value (PC3) was “is affected”.

`C=C(C)Cn1c(SCC(=O)c2ccncc2)nc2sc3c(c2c1=O)CCCC3` [JEH-3-048-1] was tested, and the EC50 (B16F11; [2]) was 14.2 µM, the EC50 (DaoY; 72 h, read-out: EC50 (50% reduction of viable cell count at 72 hours), DaoY, Human Cerebellar Medulloblastoma) was 0.057 µM and the EC50 (DaoY; [3]) was 0.0574 µM. The EC50 (HCT116; [4]) was 87.9 µM, the EC50 (MDA-MB- 231; [5]) was 6.82 µM and the EC50 (RKO) was 52.9 µM. The EC50 (RWGT2; [6]) was 40.2 µM, the EC50 (PC3) was 81.2 µM and the inhibition at 10 µM (Gli1 mRNA) was 28.7%. For the same compound, the EC50 [1, 7] was 19 µM.

With `C=C(C)Cn1c(SCC(=O)c2ccccn2)nc2sc3c(c2c1=O)CCCC3` [JEH-3-063] the EC50 (B16F11; [2]) was 2.29 µM, the EC50 (DaoY; [3]) was 15.3 µM and the EC50 (HCT116; HCT-116, 72 h, read-out: EC50 (50% reduction of viable cell count at 72 hours), HCT116, Human Colorectal Carcinoma) was 3.82 µM. It also gave an EC50 (HCT116; [4]) of 3.82 µM, an EC50 (MDA-MB- 231; [5]) of 4.46 µM and an EC50 (RKO) of 7.18 µM. For the same compound, the EC50 (RWGT2; [6]) was 23.7 µM, the EC50 (PC3) was 100 µM and the inhibition at 10 µM (Gli1 mRNA) was 35.4%. For the same compound, the EC50 [1, 7] was 39.8 µM.

With `C=C(C)Cn1c(SCC(=O)c2ccccc2)nc2sc3c(c2c1=O)CCCC3` [JEH-3-045-1] the inhibition at 1 µM (Gli1 mRNA) was 58.1%, the inhibition at 10 µM (Gli1 mRNA) was 95.4% and the EC50 (Gli1 mRNA) was 0.809 µM. For the same compound, the EC50 [1, 7] was 8.49 µM.
